From patent publication US9452992B2 (priority 2011, dated 2016)

System: VSV particles pseudotyped with EboV GP on CHO cells overexpressing NPC1
Format: cell-based, Chinese hamster

SMILES | effect of NPC1 overexpression on antiviral activity
O=C(CC12CC3CC(CC(C3)C1)C2)NCC(=O)N1CCN(Cc2ccccc2)CC1 [3.0, 2-((3r,5r,7r)-adamantan-1-yl)-N-(2-(4-benzylpiperazin-1-yl)-2-oxoethyl)acetamide] | conferred resistance
COC(=O)c1ccc(COc2ccccc2CN2CCN(C(=O)CNC(=O)CC34CC5CC(CC(C5)C3)C4)CC2)cc1 [compound 3.48, methyl 4-((2-((4-(2-(2-((3r,5r,7r)-adamantan-1-yl)acetamido)acetyl)piperazin-1-yl)methyl)phenoxy)methyl)benzoate] | conferred resistance
